Experimental data reported in patent US20200085839A1, “COMBINATION OF IMMUNOTHERAPEUTICS AND BISFLUOROALKYL-1,4-BENZODIAZEPINONE COMPOUNDS FOR TREATING LYMPHOMAS” (Ayala Pharmaceuticals Inc., priority 2018, published 2020).
Entries after “also recorded” stand apart in the source; their conditions may differ.

Legend:
Multiple Myeloma = assay: Anti-tumor activity of CAR-BCMA T cells and Compound (1) in patients; assay type: in vivo, human; conditions: CAR-BCMA T cells with a composition comprising Compound (1)
Method: All patients receive 3 doses of 300 mg/m^2 cyclophosphamide and 3 doses of 30 mg/m^2 fludarabine. Chemotherapy is administered because recipient leukocyte depletion enhances the activity of adoptively transferred T cells. Both chemotherapy agents are administered daily on days −5, −4, and −3 before CAR-BCMA T-cell infusion on day 0. CAR-BCMA T cells are administered to each patient with a composition comprising Compound (1). The dose escalation plan calls for an initial dose of 0.3×10^6 CAR^+ T cells/kg with threefold increases to each subsequent dose level.
Myeloma staging is conducted according to the International Uniform Response Criteria for Multiple Myeloma. Toxicity is graded by the Common Terminology Criteria for Adverse Events version 4.02. Two weeks, 1 month, 2 months, 3 months, and 6 months after CAR-BCMA infusion, MM is assessed with standard staging tests.
Autologous peripheral blood mononuclear cells (PBMCs) are cultured with an anti-CD3 monoclonal antibody to induce T-cell proliferation. The cells are transduced with the γ-retroviral vector that encodes that CAR, and 9 days after the initiation of cultures, CAR-BCMA T cells are infused.
CAR-BCMA T cells are detected by flow cytometry after staining with a phycoerythrin-labeled BCMA constant-fragment reagent (PE-BCMA-Fc). CAR-BCMA T cells are also detected by performing quantitative PCR (qPCR). […]

[1] = system: […] cell lines, comprising 9 subtypes of lymphomas; assay: Cell surface BCMA by FACS, lymphoma cell line panel; assay type: cell-based, human
Method: (§1) […] cell lines, comprising 9 subtypes of lymphomas (see Table 1), were seeded at 1×10^5 cells/well in a total volume of 250 μl into a 96-well plate. The cells were cultured in RPMI medium supplemented with 10% FCS. Compound (22) was added to the cell cultures at a concentration of 10 μM, 1 μM, 100 nM, 10 nM, 1 nM, 100 pM, 10 pM, 1 pM, and 100 fM, and cell lines (8 from Hadassah Medical Center, 31 from Eurofins) were incubated at 37° C. for 24 hours with Compound (22). Following incubation, the cells were collected and BCMA levels were evaluated on the cell surface for cell-bound BCMA. Cells were stained with an anti-BCMA antibody (PE anti-human 19F2 BCMA, Biolegend), and cell surface BCMA levels were determined by FACS analysis (Mean Fluorescence Intensity. Soluble BCMA levels were analyzed by ELISA (Human BCMA/TNFRSF17 DuoSet kit: R&D Systems).

[2] = system: Namalwa cells (Burkitt's Lymphoma); assay: Soluble (shed) BCMA by ELISA; assay type: cell-based, human
Method: as §1

[3] = system: Jiyoye cells (Burkitt's Lymphoma); assay: Soluble (shed) BCMA by ELISA; assay type: cell-based, human
Method: as §1

[4] = system: L-248 cells (Hodgkin's Lymphoma); assay: Soluble (shed) BCMA by ELISA; assay type: cell-based, human
Method: as §1

[5] = system: RPMI-6666 cells (Hodgkin's Lymphoma); assay: Soluble (shed) BCMA by ELISA; assay type: cell-based, human
Method: as §1

[6] = system: TUR cells (Histiocytic Lymphoma); assay: Soluble (shed) BCMA by ELISA; assay type: cell-based, human
Method: as §1

[7] = system: BC-1 cells (B-cell Lymphoma); assay: Soluble (shed) BCMA by ELISA; assay type: cell-based, human
Method: as §1

HT cells (DLBCL) = assay: Soluble (shed) BCMA by ELISA; assay type: cell-based, human
Method: as §1

DOHH-2 cells (DLBCL) = assay: Soluble (shed) BCMA by ELISA; assay type: cell-based, human
Method: as §1

[8] = system: CA46 cells (Burkitt's Lymphoma); assay: Soluble (shed) BCMA by ELISA; assay type: cell-based, human
Method: as §1

[9] = system: H9 cells (Cutaneous T-cell Lymphoma); assay: Soluble (shed) BCMA by ELISA; assay type: cell-based, human
Method: as §1

[10] = system: CRO-AP2 cells (B-cell Lymphoma); assay: Soluble (shed) BCMA by ELISA; assay type: cell-based, human
Method: as §1

[11] = system: […] cell lines, comprising 9 subtypes of lymphomas; assay: Soluble BCMA by ELISA, lymphoma cell line panel; assay type: cell-based, human
Method: as §1

[12] = cell lines derived from Mantle Cell Lymphoma, DLBCL, Burkitt's Lymphoma, B-cell Lymphoma, 24 h
[13] = Homo sapiens, read-out: Shed BCMA (pg/ml) EC50

## CN1C(=O)[C@@H](NC(=O)[C@H](CCC(F)(F)F)[C@H](CCC(F)(F)F)C(N)=O)N=C(c2ccccc2)c2ccccc21 [Compound 1, (2R,3S)—N-((3S)-1-methyl-2-oxo-5-phenyl-2,3-dihydro-1H-1,4-benzodiazepin-3-yl)-2,3-bis(3,3,3-trifluoropropyl)succinamide]
Multiple Myeloma
  anti-tumor response: improved anti-tumor response compared to either BCMA targeted CAR-T or Compound (1) treatment alone

## Cc1cccc2c1NC(=O)[C@@H](NC(=O)[C@H](CCC(F)(F)F)[C@H](CCC(F)(F)F)C(N)=O)N=C2c1cccc(F)c1 [Compound (22), (2R,3S)—N-((3S)-5-(3-fluorophenyl)-9-methyl-2-oxo-2,3-dihydro-1H-1,4-benzodiazepin-3-yl)-2,3-bis(3,3,3-trifluoropropyl)succinamide]
[1]; B-ALL, histiocytic lymphoma, anaplastic large cell lymphoma, cutaneous T-cell lymphoma cell lines
  cell-bound BCMA levels: did not increase cell-bound BCMA levels
[1]; [12]
  cell-bound BCMA levels: increased cell-bound BCMA levels
[1]; cell lines from Hodgkin's Lymphoma patients
  cell-bound BCMA levels: increased cell-bound BCMA levels
[1]; certain lymphomas
  increase of BCMA expression: Compound (22) increases BCMA expression in certain lymphomas by 2-9 fold
  mBCMA: increases mBCMA
[2]; Homo sapiens, Namalwa, read-out: Shed BCMA (pg/ml) EC50
  EC50: 0.6 nM
[2]; NAMALWA, 10 nM, 24 h
  soluble BCMA 10 nM Compound (22): 66.6
[2]; Namalwa
  Shed BCMA (pg/ml) % Reduction: 95%
[2]; Namalwa, 1 nM, 24 h
  soluble BCMA 1 nM Compound (22): 87.5
[2]; Namalwa, 100 nM, 24 h
  soluble BCMA 100 nM Compound (22): 67.4
[3]; Homo sapiens, JIYOYE, read-out: Shed BCMA (pg/ml) EC50
  EC50: 2.3 nM
[3]; JIYOYE, 10 nM, 24 h
  soluble BCMA 10 nM Compound (22): 472.3
[3]; Jiyoye
  Shed BCMA (pg/ml) % Reduction: 81%
[3]; Jiyoye, 1 nM, 24 h
  soluble BCMA 1 nM Compound (22): 1707.7
[3]; Jiyoye, 100 nM, 24 h
  soluble BCMA 100 nM Compound (22): 373.1
[3]; Jiyoye, FIG. 8B
  soluble BCMA: decreased soluble BCMA
[4]
  Shed BCMA (pg/ml) % Reduction: BLQ
[4]; [13]
  EC50: > 10000 nM
[5]
  Shed BCMA (pg/ml) % Reduction: 92%
[5]; [13]
  EC50: 9.1 nM
[6]
  Shed BCMA (pg/ml) % Reduction: BLQ
[6]; [13]
  EC50: > 10000 nM
[7]
  Shed BCMA (pg/ml) % Reduction: 30%
[7]; 1 nM, 24 h
  soluble BCMA 1 nM Compound (22): >2000
[7]; 10 nM, 24 h
  soluble BCMA 10 nM Compound (22): 1841.6
[7]; 100 nM, 24 h
  soluble BCMA 100 nM Compound (22): 878.6
[7]; Homo sapiens, BC1, read-out: Shed BCMA (pg/ml) EC50
  EC50: 84 nM
HT cells (DLBCL)
  Shed BCMA (pg/ml) % Reduction: 98%
HT cells (DLBCL); 1 nM, 24 h
  soluble BCMA 1 nM Compound (22): 389.4
HT cells (DLBCL); 10 nM, 24 h
  soluble BCMA 10 nM Compound (22): 99.4
HT cells (DLBCL); 100 nM, 24 h
  soluble BCMA 100 nM Compound (22): 38
HT cells (DLBCL); [13]
  EC50: 1 nM
DOHH-2 cells (DLBCL)
  Shed BCMA (pg/ml) % Reduction: 93%
DOHH-2 cells (DLBCL); 1 nM, 24 h
  soluble BCMA 1 nM Compound (22): 1272.1
DOHH-2 cells (DLBCL); 10 nM, 24 h
  soluble BCMA 10 nM Compound (22): 136
DOHH-2 cells (DLBCL); 100 nM, 24 h
  soluble BCMA 100 nM Compound (22): 98.4
DOHH-2 cells (DLBCL); [13]
  EC50: 2.2 nM
[8]; CA46
  Shed BCMA (pg/ml) % Reduction: 90%
[8]; CA-46, 1 nM, 24 h
  soluble BCMA 1 nM Compound (22): 1775.4
[8]; CA-46, 10 nM, 24 h
  soluble BCMA 10 nM Compound (22): 330
[8]; CA-46, 100 nM, 24 h
  soluble BCMA 100 nM Compound (22): 173.2
[8]; Homo sapiens, CA46, read-out: Shed BCMA (pg/ml) EC50
  EC50: 7.4 nM
[9]
  Shed BCMA (pg/ml) % Reduction: BLQ
[9]; [13]
  EC50: > 10000 nM
[10]
  Shed BCMA (pg/ml) % Reduction: 91%
[10]; 1 nM, 24 h
  soluble BCMA 1 nM Compound (22): 1895.3
[10]; 10 nM, 24 h
  soluble BCMA 10 nM Compound (22): 409.5
[10]; 100 nM, 24 h
  soluble BCMA 100 nM Compound (22): 126.1
[10]; [13]
  EC50: 4.8 nM
[11]; [12]
  soluble BCMA: reduced soluble BCMA
[11]; certain lymphomas
  shedding: abrogates shedding
[11]; lymphoma cells
  BCMA shedding: decreases BCMA shedding from some lymphomas; also recorded: inhibits BCMA shedding
[11]; some Lymphoma/Leukemia cell lines
  soluble BCMA: Compound (22) decreases soluble BCMA in some Lymphoma/Leukemia cell lines
